The record followed here is PMC4854315, “Discovery of a novel allosteric inhibitor-binding site in ERK5: comparison with the canonical kinase hinge ATP-binding site” (Acta Crystallographica. Section D, Structural Biology, 2016).

What all share (assay): Z'-LYTE kinase panel
Common to all, as to format: biochemical

Assay [1] has as its target T1, MARK3 (Homo sapiens, UniProt P27448).
T1 construct: purchased ThermoFisher (SelectScreen, Z'-LYTE)
In short, it runs like this: (§1)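 The 225-kinase standard panel was run using the Z′-LYTE protocol, and inhibition was expressed as a percentage relative to uninhibited activity at 10 µM compound.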

For assay [2], the target named is T2, RPS6KA2 (RSK3) (Homo sapiens, UniProt Q15349).
T2 construct: purchased ThermoFisher (SelectScreen, Z'-LYTE)
T2 sequence (Q15349 whole entry): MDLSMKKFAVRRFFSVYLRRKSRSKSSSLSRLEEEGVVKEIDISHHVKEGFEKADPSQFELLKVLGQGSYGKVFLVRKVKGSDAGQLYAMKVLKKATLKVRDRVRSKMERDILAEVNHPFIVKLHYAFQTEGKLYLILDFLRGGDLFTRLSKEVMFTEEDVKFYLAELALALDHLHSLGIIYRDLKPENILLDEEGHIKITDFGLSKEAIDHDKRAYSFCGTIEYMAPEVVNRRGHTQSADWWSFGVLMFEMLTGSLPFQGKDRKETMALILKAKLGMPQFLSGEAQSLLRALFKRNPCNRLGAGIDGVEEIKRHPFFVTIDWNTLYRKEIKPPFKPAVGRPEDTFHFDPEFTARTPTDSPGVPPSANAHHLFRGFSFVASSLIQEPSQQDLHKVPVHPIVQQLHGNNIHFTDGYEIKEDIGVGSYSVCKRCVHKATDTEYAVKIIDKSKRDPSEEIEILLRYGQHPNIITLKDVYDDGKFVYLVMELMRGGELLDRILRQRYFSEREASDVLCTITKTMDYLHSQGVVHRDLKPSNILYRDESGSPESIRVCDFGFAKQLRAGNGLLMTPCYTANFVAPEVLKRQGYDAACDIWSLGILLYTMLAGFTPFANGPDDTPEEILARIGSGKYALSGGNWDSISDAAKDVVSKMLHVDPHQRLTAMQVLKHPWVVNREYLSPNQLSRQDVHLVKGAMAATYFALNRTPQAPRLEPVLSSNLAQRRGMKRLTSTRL
In short, it runs like this:
as §1

Assay [3] has as its target T3, PRKCE (PKC epsilon) (Homo sapiens, UniProt Q02156).
T3 construct: purchased ThermoFisher (SelectScreen, Z'-LYTE)
T3 sequence (Q02156 1-737): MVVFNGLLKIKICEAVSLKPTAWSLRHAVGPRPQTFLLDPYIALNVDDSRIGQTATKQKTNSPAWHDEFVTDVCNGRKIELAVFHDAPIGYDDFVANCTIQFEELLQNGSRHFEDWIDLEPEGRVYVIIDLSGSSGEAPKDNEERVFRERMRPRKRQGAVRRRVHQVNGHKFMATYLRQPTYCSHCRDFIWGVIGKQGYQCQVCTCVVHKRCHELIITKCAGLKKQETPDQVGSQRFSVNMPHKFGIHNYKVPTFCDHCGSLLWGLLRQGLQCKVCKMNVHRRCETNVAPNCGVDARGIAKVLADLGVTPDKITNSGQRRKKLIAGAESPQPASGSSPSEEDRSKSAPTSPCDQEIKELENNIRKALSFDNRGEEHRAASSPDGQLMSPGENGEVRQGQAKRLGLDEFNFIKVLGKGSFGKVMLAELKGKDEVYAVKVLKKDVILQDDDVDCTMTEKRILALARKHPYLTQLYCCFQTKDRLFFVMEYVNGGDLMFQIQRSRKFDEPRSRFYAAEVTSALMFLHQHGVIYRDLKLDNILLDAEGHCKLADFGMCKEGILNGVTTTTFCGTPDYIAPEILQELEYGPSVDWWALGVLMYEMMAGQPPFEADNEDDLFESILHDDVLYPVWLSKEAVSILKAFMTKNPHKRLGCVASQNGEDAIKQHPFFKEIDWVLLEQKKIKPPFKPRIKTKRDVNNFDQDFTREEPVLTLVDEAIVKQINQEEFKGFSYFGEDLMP
In short, it runs like this: as §1

In assay [4] the target is T4, NEK1 (Homo sapiens, UniProt Q96PY6).
T4 construct: purchased ThermoFisher (SelectScreen, Z'-LYTE)
T4 sequence (Q96PY6 1-1258): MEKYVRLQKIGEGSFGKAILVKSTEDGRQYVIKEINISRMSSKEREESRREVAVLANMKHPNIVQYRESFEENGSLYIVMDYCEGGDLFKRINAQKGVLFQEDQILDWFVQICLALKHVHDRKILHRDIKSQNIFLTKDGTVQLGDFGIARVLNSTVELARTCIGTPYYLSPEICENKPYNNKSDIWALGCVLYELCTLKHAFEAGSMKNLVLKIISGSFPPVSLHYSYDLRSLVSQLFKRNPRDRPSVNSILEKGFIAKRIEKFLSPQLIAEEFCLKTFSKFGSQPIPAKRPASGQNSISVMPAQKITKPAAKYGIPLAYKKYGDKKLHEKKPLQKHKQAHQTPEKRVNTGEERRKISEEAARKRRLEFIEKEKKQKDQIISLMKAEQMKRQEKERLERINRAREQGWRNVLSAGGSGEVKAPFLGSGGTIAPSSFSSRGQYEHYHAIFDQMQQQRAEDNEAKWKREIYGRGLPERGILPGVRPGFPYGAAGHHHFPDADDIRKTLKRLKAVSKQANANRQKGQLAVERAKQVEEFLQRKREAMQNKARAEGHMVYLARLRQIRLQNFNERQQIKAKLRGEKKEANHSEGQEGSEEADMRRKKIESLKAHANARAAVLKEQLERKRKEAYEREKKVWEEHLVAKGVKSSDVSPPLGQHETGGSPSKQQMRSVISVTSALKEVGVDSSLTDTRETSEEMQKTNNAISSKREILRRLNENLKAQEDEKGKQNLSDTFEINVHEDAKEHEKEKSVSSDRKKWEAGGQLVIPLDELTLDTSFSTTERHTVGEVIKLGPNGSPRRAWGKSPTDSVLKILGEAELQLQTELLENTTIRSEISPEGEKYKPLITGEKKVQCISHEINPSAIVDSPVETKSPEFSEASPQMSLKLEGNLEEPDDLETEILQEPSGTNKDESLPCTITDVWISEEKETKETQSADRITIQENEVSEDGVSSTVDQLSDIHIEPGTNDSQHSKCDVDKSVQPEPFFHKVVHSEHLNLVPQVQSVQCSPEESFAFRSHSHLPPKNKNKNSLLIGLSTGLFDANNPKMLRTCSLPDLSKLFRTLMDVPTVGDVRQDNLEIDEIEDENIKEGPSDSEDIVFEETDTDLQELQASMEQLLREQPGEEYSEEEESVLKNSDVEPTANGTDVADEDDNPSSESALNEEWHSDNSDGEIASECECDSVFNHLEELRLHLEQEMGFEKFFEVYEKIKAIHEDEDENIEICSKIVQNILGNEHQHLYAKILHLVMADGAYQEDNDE
In a few lines: as §1

For assay [5], the target named is T5, ZAP70 (Homo sapiens, UniProt P43403).
T5 construct: purchased ThermoFisher (SelectScreen, Z'-LYTE)
T5 sequence (P43403 1-619): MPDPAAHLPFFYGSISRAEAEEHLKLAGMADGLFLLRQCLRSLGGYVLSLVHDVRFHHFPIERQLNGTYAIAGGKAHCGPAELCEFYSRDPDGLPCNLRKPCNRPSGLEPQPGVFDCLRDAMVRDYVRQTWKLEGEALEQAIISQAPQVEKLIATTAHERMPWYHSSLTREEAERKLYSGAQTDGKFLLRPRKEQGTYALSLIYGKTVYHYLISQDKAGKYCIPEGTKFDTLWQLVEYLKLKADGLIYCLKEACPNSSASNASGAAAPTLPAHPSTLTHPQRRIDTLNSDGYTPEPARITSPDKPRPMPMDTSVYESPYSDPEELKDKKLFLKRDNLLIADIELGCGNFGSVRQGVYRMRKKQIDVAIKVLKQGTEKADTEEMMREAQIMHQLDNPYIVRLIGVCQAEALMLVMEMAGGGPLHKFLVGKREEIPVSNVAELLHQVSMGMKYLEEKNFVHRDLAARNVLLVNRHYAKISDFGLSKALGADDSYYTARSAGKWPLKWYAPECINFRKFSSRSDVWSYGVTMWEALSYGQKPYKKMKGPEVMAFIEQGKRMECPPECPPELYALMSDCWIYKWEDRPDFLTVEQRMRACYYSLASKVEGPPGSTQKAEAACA
In short, it runs like this: as §1

T1 sequence (P27448 whole entry): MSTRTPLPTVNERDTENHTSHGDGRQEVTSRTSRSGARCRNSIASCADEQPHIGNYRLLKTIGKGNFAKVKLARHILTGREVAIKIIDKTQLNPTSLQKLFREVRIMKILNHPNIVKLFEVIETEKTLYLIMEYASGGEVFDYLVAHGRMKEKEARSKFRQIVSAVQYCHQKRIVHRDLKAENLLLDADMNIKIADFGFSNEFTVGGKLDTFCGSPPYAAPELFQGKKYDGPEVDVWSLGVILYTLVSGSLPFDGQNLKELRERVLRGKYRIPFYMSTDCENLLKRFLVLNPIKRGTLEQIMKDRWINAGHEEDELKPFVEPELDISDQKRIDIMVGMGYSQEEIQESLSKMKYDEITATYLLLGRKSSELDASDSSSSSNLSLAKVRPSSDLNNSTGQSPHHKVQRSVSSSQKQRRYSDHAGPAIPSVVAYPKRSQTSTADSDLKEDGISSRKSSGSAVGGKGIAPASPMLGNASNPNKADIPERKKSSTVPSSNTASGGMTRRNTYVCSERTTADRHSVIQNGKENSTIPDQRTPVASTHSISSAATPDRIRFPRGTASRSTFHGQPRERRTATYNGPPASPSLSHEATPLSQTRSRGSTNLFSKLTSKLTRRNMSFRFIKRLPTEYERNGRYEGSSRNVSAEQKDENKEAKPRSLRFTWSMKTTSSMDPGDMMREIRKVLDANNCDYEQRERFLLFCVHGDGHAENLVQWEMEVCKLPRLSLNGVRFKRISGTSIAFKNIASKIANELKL

As a reminder, the inhibition is the relative decrease from the control value, in per cent. For `Cc1ncc(-c2nc(Nc3ccc(C(=O)NCCN4CCCCC4)cc3)ncc2F)n1C(C)C` [Compound 3], the inhibition at 10 µM in assay [1] worked out at 84%; in assay [2], 90%; in assay [3], 45%; in assay [4] it was 6.39%; in assay [5], 19%.

Turning to `Cc1cc(Nc2nc(N)nn2C(=O)NC(C)C)ccc1Cl` [Compound 5], the inhibition at 10 µM in assay [1] is 25%; in assay [2], 70%; in assay [3], -17%; in assay [4], 21%; in assay [5], 12%.

As for “XMD8-92 [Compound 2, reference compound]”, in assay [1] (10 µM compound, ATP Km app), the “MARK3 % Inhibition” value worked out at 28%. Also, in assay [2] (10 µM compound, ATP Km app), the “RPS6KA2 (RSK3) % Inhibition” value came to 23%. Further, the “PRKCE (PKC epsilon) % Inhibition” value in assay [3] (10 µM compound, ATP Km app) is recorded as 1.55%. For the same compound, the “NEK1 % Inhibition” value in assay [4] (10 µM compound, ATP Km app) was -9%. Besides, the “ZAP70 % Inhibition” value in assay [5] (10 µM compound, ATP Km app) is on record as 12%.
